{
  "source": "patent US10327423B2",
  "about": "“Antimicrobial compounds and compositions, and uses thereof” (Akeso Biomedical, Inc., priority 2014, dated 2019)",
  "key": {"H. pylori CCUG 17875": {"system": "H. pylori CCUG 17875", "experiment": "H. pylori attachment to human gastric tissue sections (FITC-labelled bacteria)", "format": "cell-based, Helicobacter pylori", "details": "Fe-QA 1 mM and 0.2 mM; 1 hour at room temperature", "method": "The ability of H. pylori CCUG 17875 to bind to samples of human gastric tissue in the presence of Lewis b antigen, Le^b, and two concentrations of Fe-QA (1 mM and 0.2 mM) was measured. Binding was quantified by fluorescence using H. pylori that had been labeled with fluorescein using FITC (fluorescein isothiocyanate), and human gastric tissue that was embedded in […]. The bacteria were suspended in blocking buffer (1% BSA in PBS) and applied to re-hydrated histo-sections of human gastric tissue. Binding was assessed microscopically, and quantified as the average number of bacteria bound to the tissue."}, "[1]": {"system": "Enteropathogenic E. coli (EPEC) strain E2348/69", "experiment": "Growth curve of antibiotic resistant EPEC with gentamicin and Fe complex", "format": "cell-based, Escherichia coli", "details": "for rate of growth relative to gentamicin alone: gentamicin 1.25 μM and FeQ 10 to 100 μM", "method": "The impact on the growth curve of antibiotic resistant Enteropathogenic E. coli (EPEC) strain E2348/69 (genotype Wild Type EPEC O17:H6) when grown in the presence of (i) gentamicin (1.25 μM), (ii) Fe-Tyr (100 μM), (iii) gentamicin (1.25 μM) and Fe-Tyr (1.25 μM), and (iv) a control with no gentamicin or Fe-Tyr present was determined.\n(§1) The impact on the growth curve of antibiotic resistant Enteropathogenic E. coli (EPEC) strain E2348/69 (genotype Wild Type EPEC O17:H6) when grown in the presence of a fixed concentration of gentamicin (1.25 μM) and an increasing concentration of FeQ versus the strain grown in the presence of only FeQ or only gentamicin, was determined.\nas §1, with “FeDOPA” for “FeQ”"}, "[2]": {"system": "Enteropathogenic E. coli (EPEC) E2348/69", "experiment": "Crystal violet assay of attachment to plastic wells", "format": "cell-based, Escherichia coli", "details": "FeQ 100 μM; 48 hours at 37° C.", "method": "(§2) Enteropathogenic E. coli (EPEC) E2348/69 were grown in wells for 48 hours at 37° C. in the presence of FeQ (100 μM), and in the absence of FeQ (as control). After 48 hours, the wells were washed in order to remove suspended cells. Crystal violet was then added to each well. The wells were then washed to remove excess dye. A mixture of acetone/ethanol was then added to the wells to re-suspend any cells attached to the plastic surface of the wells, and dissolve any dye present. The presence of dye in each well was then quantified by measuring the O.D. at 570 nm.\nas §2, with “FeDOPA (10-250” for “FeQ (100”, “FeDOPA” for “FeQ”"}, "Campylobacter": {"system": "Campylobacter", "experiment": "Campylobacter carriage in chickens (cfu/g of droppings and caeca samples)", "format": "in vivo", "details": "days 0-42, dirty litter challenge", "method": "A study was performed to evaluate growth promotion and reduction of Campylobacter carriage using FeQ and FeTyr in Ross 308 male broilers with 7 treatment groups. Each treatment group comprised four replicates of 10 birds per pen (40 birds/treatment group and 4 pens of 10 birds/treatment group), and there were 2 control groups and 5 test groups. All the test groups and one of the control groups were exposed at day 20 of the trial to dirty litter, which tested positive for Campylobacter. This method was used to provide a more natural method to Campylobacter challenge the birds. Thus there was a positive control where one treatment group was challenged with Campylobacter and one negative control group where the birds were not challenged, and five treatment groups that were all challenged with Campylobacter. The total number of birds used in the 7 treatment groups was 280. Treatment group 1 was a negative control where birds just received the commercial feed, and were not challenged with dirty litter containing Campylobacter. Treatment group 2 was the positive control where the birds received the commercial feed, and were challenged with dirty litter containing Campylobacter at day 20. Treatment group 3 received 0.22 g/L of FeQ in their drinking water and 0.22 g/Kg FeQ in their feed during the entire trial, and was challenged with dirty litter containing Campylobacter at day 20. Treatment group 5 received 0.22 g/L of FeQ in their drinking water during the entire trial, and was challenged with dirty litter containing Campylobacter at day 20. Treatment group 6 received 0.22 g/kg FeQ in their feed during the entire trial, and was challenged with dirty litter containing Campylobacter at day 20. […]\nPrior to challenging the chickens with dirty litter containing Campylobacter at day 20, each pen was tested for Campylobacter using cloacal swabs. […] Samples were analyzed for blood chemistry, including analysis for alkaline phosphatase, aspartate amino transferase, alanine amino transferase, gamma-glutamyl transferase, lactate dehydrogenase, total protein, albumin, globulin, amylase and glucose."}, "[3]": {"system": "Camyplobacter jejuni NCTC 11168", "experiment": "Motility on brain-heart infusion plate", "format": "cell-based, Campylobacter jejuni", "details": "FeQ 34 μM; 43 hours", "method": "Camyplobacter jejuni NCTC 11168 was treated with FeQ (34 μM) and a plate containing brain-heart infusion (BHI) medium inoculated with […], 2×10^5 colony forming units of the treated bacteria and the plate was cultured for 43 hours. The growth and motility of the bacteria after treatment with FeQ was compared to a positive control where the bacteria had not been treated with FeQ, and also to a negative control where no bacteria were applied to a plate of the BHI medium. […] In contrast, Campylobacter jejuni that was not treated with FeQ was motile, and spread around the culture plate. There was no growth visible, as expected, on the plates that were not inoculated with bacteria."}},
  "note": "Entries after “also recorded” stand apart in the source; their conditions may differ.",
  "data": [
    {"molecule": "O=C1[O][Fe]23([O]C(=O)[C@]4(C[C@@H](O)[C@H](O)[C@H](O)C4)[O]2)([O]C(=O)[C@]2(C[C@@H](O)[C@H](O)[C@H](O)C2)[O]3)[O][C@@]12C[C@@H](O)[C@H](O)[C@H](O)C2", "note": "[FeQ, a complex of quinic acid with Fe III]", "values": [
      {"measurement": "binding of H. pylori to human gastric tissue", "setting": "H. pylori CCUG 17875", "value": "significantly reduced"},
      {"measurement": "growth rate", "setting": "[1]; FeQ alone, 10 μM to 100 μM", "value": "did not impact the growth rate"},
      {"measurement": "rate of growth relative to gentamicin alone", "setting": "[1]", "value": "inhibited"},
      {"measurement": "rate of growth relative to gentamicin alone", "setting": "[1]; listed as Fe-QA", "value": "loses its resistance"},
      {"measurement": "attachment of EPEC cells to plastic well surface and biofilm formation (crystal violet, O.D. 570 nm)", "setting": "[2]", "value": "little or no attachment of bacterial cells to the surface and no biofilm formation"},
      {"measurement": "Campylobacter colony forming units per gram of bird droppings at day 42", "setting": "Campylobacter; Treatment 7: FeQ 0.022 g/L in drinking water", "value": "less of an effect than the other treatment groups"},
      {"measurement": "average Campylobacter cfu/g of caeca samples at day 42 versus positive control", "setting": "Campylobacter; treatment groups 3, 5, 6, 7 (FeQ) and 8 (FeTyr)", "value": "lower levels of Campylobacter in their caeca; also recorded: performed better than the positive control"},
      {"measurement": "motility of bacteria on BHI plate", "setting": "[3]", "value": "not motile"}
    ]}
  ]
}
